Reference: patent US20030171579A1, “Urethane derivatives” (priority 2003, published 2003)

Columns and labels:
[1] = molecular target: TF/VIIa (Homo sapiens, UniProt P08709); assay: Inhibition of TF/VIIa ("Affinity to receptors"); format: biochemical
Source text: The inhibition of factor VIIa by the compounds according to the invention and the measurement of the anticoagulant and antithrombotic activity can be determined by conventional in-vitro or in-vivo methods. A conventional method for the measurement of the inhibition of factor VIIa is described, for example, by H. F. Ronning et al. in Thrombosis Research 1996, 84, 73-81.

[2] = molecular target: factor Xa, human (Homo sapiens, UniProt P00742); assay: Inhibition of factor Xa ("Affinity to receptors"); format: biochemical
Source text: The inhibition of factor Xa by the compounds according to the invention and the measurement of the anticoagulant and antithrombotic activity can be determined by conventional in-vitro or in-vivo methods. A suitable method is described, for example, by J. Hauptmann et al. in Thrombosis and Haemostasis 1990, 63, 220-223.
The inhibition of factor Xa can be measured, for example, by the method of T. Hara et al. in Thromb. Haemostas. 1994, 71, 314-319.

Sequence of factor Xa, human (P00742 235-488 limits assumed): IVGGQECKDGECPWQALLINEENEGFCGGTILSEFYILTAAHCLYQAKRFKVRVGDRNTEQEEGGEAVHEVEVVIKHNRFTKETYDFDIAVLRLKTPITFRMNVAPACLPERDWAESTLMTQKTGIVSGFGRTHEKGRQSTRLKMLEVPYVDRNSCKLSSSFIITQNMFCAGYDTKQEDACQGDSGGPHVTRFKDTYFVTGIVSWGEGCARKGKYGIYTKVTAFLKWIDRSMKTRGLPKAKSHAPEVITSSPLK
Sequence of factor Xa, human (P00742 41-179 limits assumed): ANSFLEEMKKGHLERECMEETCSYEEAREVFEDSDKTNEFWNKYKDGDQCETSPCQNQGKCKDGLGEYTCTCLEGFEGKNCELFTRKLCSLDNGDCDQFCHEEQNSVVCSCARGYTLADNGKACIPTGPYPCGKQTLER
Sequence of TF/VIIa (P08709 213-466 limits assumed): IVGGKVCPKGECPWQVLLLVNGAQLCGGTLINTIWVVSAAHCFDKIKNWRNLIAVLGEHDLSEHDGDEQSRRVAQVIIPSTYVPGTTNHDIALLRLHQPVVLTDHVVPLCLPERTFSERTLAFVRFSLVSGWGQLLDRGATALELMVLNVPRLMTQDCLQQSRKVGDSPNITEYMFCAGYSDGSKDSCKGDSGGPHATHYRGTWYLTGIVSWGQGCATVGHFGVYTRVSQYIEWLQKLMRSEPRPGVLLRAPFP
Sequence of TF/VIIa (P08709 61-212 limits assumed): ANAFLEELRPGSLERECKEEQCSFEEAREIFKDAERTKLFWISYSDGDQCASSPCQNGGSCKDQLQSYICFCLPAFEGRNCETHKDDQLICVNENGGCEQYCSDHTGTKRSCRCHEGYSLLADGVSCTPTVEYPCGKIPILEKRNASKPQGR
Sequence of TF/VIIa (P13726 33-295 partner): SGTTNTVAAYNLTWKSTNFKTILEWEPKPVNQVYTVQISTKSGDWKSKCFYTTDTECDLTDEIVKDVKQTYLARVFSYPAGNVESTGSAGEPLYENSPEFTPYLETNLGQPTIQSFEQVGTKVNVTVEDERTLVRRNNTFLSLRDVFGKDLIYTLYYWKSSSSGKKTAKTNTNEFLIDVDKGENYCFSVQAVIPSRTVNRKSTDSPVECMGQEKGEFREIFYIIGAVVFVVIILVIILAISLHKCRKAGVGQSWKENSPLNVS

Row | Compound | IC50 [1] | IC50 [2] | melting point
1 | CS(=O)(=O)c1ccccc1-c1ccc(NC(=O)N(Cc2ccccc2)Cc2cccc(C(=N)N)c2)cc1 [1-(3-amidinobenzyl)-3-(2′-methylsulfonylbiphenyl-4-yl)-1-benzylurea] | 26 nM | 80 nM | –
2 | CCCN(Cc1cccc(C(=N)N)c1)C(=O)Nc1ccc(-c2ccccc2S(N)(=O)=O)cc1 [Example 3.3, 1-(3-amidino-benzyl)-3-(2′-sulfamoylbiphenyl-4-yl)-1-propylurea] | 80 nM | 140 nM | 166 to 167 °C
3 | CCCN(Cc1cccc(C(=N)N)c1)C(=O)Nc1ccc(-c2ccccc2S(C)(=O)=O)cc1 [Example 4.3, 1-(3-amidino-benzyl)-3-(2′-methylsulfonylbiphenyl-4-yl)-1-propylurea] | 30 nM | 100 nM | –
4 | N=C(N)c1cccc(CN(C(=O)Nc2ccc(-c3ccccc3S(N)(=O)=O)cc2)c2ccccc2)c1 [Example 5.3, 1-(3-amidinobenzyl)-3-(2′-sulfamoylbiphenyl-4-yl)-1-phenylurea] | 100 nM | 330 nM | 201 to 202 °C
5 | CS(=O)(=O)c1ccccc1-c1ccc(NC(=O)N(Cc2cccc(C(=N)N)c2)c2ccccc2)cc1 [Example 6.3, 1-(3-amidinobenzyl)-3-(2′-methylsulfonylbiphenyl-4-yl)-1-phenylurea] | 70 nM | 300 nM | –
